According to PMC9785144, “Metal Coordination and Biological Screening of a Schiff Base Derived from 8-Hydroxyquinoline and Benzothiazole” (Pharmaceutics, 2022):

Columns and labels:
HCT-116 cells [1] = system: HCT-116 cells; design: method as in PMID 34389368, PMID 34562873; conditions: HCT-116, concentrations around 20 μM; cited from earlier work
HCT-116 cells [2] = experiment: Wound-healing migration assay, HCT-116; type: cell-based, human; conditions: HCT-116, 40 μM, at 22 h (control 50%)
Description: To assess cellular migration in the presence or absence of tested compounds, HCT-116 and CT-26 cells were plated at 1.5 × 10^5 and 3 × 10^5 cells/mL in a 12-well plate (1 mL/well) and were allowed to adhere and grow until reaching around 80–90% confluence. A sterile 10 μL pipette tip was used to wound the cell monolayer, followed by a washing step with PBS to remove debris. Then, cells were incubated with the tested compounds suspended in RPMI-1640 (CT-26) or DMEM media (HCT-116) supplemented with 2% FBS and 100 IU/mL of penicillin and 100 μg/mL streptomycin (Gibco, Thermo Fisher Scientific, Waltham, MA, USA), and hereafter designated as RPMI 2% and DMEM 2%, respectively. Under the above mentioned culture conditions, CT-26 cells were incubated with [Ni(HL)(acetate)] or [Ru(HL)Cl(DMSO)] at concentrations of 10 and 15 μM, respectively. […] The positive control, 5-FU, was tested at 1.5 and 40 μM for CT-26 and HCT-116, respectively. Negative control group was constituted by cells maintained in RPMI 2% (CT-26) and DMEM 2% (HCT-116). Images of the wound closure were taken beneath the stage of a Zeiss Axiovert 200 inverted microscope, using a 10× objective and a digital camera (CoolSNAP EZ, Photometrics, Huntington Beach, CA, USA) and recorded by the Metafluor Software at 0, 2, 4, 8, 18, 20 and 22 h following cell monolayer scratching (Molecular Devices, Sunnyvale, CA, USA). […]

[3] = system: HCT-116 colon cancer cells; experiment: MTT antiproliferative assay, HCT-116; type: cell-based, human; conditions: Homo sapiens; HCT-116, MTT, 48 h incubation
Description: (§1) Murine colon cancer CT-26 (ATCC® CRL-263™) cells were cultured in RPMI-1640, supplemented with 10% foetal bovine serum (FBS) and 100 IU/mL of penicillin and 100 μg/mL streptomycin (Gibco, Thermo Fisher Scientific, Waltham, MA, USA), hereafter designated as complete culture medium. Human colon cancer HCT-116 (ATCC® CCL-247™), human melanoma A375 (ATCC® CCL-1619™), murine melanoma B16F10 (ATCC® CCL-6475™) cells and human epidermal keratinocytes (HaCaT) were maintained in Dulbecco’s modified Eagle’s medium (DMEM) with high-glucose (4500 mg/L) (Sigma-Aldrich, St. Louis, MO, USA), supplemented with 10% FBS and 100 IU/mL of penicillin and 100 μg/mL streptomycin (Gibco, Thermo Fisher Scientific, Waltham, MA, USA), also designated as complete culture medium. The cell lines were maintained at 37 °C in a 5% CO2 environment and cells were trypsinised every 2–3 days when 80% confluence was reached.
(§2) Negative controls were cells maintained in complete culture medium.

CT-26 cells = experiment: Guava ViaCount cell viability assay; type: cell-based, murine; conditions: CT-26, 48 h incubation
Description: CT-26 cells were incubated with [Ni(HL)(acetate)] or [Ru(HL)Cl(DMSO)] at concentrations of 5 and 10 μM or 10 and 20 μM, respectively. For the HCT-116 cell line, the tested concentrations were 5 and 7.5 μM, and 7.5 and 12.5 μM, respectively. The positive control group, 5-FU, was tested at 0.5 and 2 μM, and at 20 and 40 μM for CT-26 and HCT-116, respectively. Negative control group was constituted by cells in the presence of complete culture medium. After a 48 h incubation period, cell culture supernatants were collected, and adherent cells were detached using TrypLE™ Express (Invitrogen). Detached cells were then added to supernatants and the wells were washed using PBS with 2% FBS to recover any remaining cells. The recovered suspension was added to the previously collected cells and supernatants and centrifuged for 5 min at 650× g. The supernatants were discarded, and cells were suspended in PBS with 2% FBS. Then, on a 96-well plate, 20 μL of cell suspension was incubated with 180 μL of Guava ViaCount® reagent (Merck Millipore, Darmstadt, Germany) for 5 min at r. t. Using a Guava EasyCyte 5HT Flow cytometer (Guava Technologies, Inc., Hayward, CA, USA), data were collected and analysed with the ViaCount software module with the acquisition of 10,000 events per sample. GraphPad Prism®8 was used to analyse cell proliferation (GraphPad Software, San Diego, CA, USA). […]

CT-26 colon cancer cells = experiment: MTT antiproliferative assay, CT-26; type: cell-based, murine; conditions: Mus musculus, CT26; CT-26, MTT, 48 h incubation
Description: as §1, §2

cancer cells = conditions: in vitro; cited from earlier work
HCT-116 cell line = system: HCT-116 cell line; design: method as in PMID 26961176; conditions: cited from earlier work
[4] = biological target: bovine serum albumin (BSA) (Bos taurus, UniProt P02769); experiment: Albumin binding by fluorescence quenching and circular dichroism; conditions: BSA ca. 20–25 μM, bands centred at ca. 360 nm, compound 5 to 70 μM
Chain of bovine serum albumin (BSA) (P02769 25-607): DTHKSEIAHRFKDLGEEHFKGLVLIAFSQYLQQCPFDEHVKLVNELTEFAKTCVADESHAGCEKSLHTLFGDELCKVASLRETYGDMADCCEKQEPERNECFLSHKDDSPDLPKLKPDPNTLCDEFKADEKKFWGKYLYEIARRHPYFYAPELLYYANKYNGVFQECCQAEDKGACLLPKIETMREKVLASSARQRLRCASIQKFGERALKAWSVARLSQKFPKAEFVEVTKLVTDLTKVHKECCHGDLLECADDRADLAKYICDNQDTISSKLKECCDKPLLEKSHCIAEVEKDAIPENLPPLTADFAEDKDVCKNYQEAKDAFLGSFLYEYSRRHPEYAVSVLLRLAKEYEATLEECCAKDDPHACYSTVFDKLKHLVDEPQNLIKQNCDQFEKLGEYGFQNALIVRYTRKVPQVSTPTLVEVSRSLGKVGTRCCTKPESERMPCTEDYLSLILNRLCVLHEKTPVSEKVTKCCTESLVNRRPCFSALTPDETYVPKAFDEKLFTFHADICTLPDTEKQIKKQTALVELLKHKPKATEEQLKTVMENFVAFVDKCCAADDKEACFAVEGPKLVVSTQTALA
Description: The concentration of BSA in the experiments was ca. 1.5 μM (in aqueous PBS). The fluorescence emission spectra were recorded between 310 and 575 nm, with λex = 295 nm. Successive additions of the complexes were done directly to the cuvette (optical path 1 cm) and the fluorescence emission spectra were recorded for each one under the same conditions. Blank assays for each sample, consisting in solutions with the same concentration of complex and no BSA, were recorded and subtracted to the corresponding emission spectra containing the fluorophore. The UV-vis spectra of the sample solutions were used to correct the emission spectra, minimizing inner filter and reabsorption phenomena interference.
The concentration of BSA in the experiments was ca. 20–25 μM (in aqueous PBS). The circular dichroism (CD) spectra are an average of three scan accumulations, recorded between 300 and 500 nm, with bandwidth of 1 nm and response of 2 s, using a scanning speed of 100 nm/min. Successive additions of the complexes stock solutions in DMSO were done directly to the cuvette (1 cm) and the CD spectra were recorded under the same conditions after 10 min equilibration. Induced CD spectra were obtained as the CD spectrum of compound-BSA mixture minus the CD spectrum of BSA alone and are expressed as ellipticity in millidegrees.

[5] = Stability in PBS pH 7.4 without and with BSA (UV-vis); type: physicochemical; conditions: PBS pH 7.4, 25 °C, <1% DMSO, without BSA
Description: The complexes were monitored for their stability in PBS, pH 7.4 at 25 °C in the absence and presence of equimolar amounts of bovine serum albumin (BSA). Stock solutions of each complex were prepared in DMSO and then diluted in PBS in order to obtain final concentrations of 20 to 30 µM and ensuring that the organic solvent was less than 1% (v/v). For the assays with BSA, stock solutions of the protein were prepared in PBS using 20 mg of lyophilised powder in 5 mL solvent, which were allowed to hydrate for 24 h in the refrigerator. Samples were monitored by UV-vis absorption spectroscopy for 6 h and a final measurement was also taken after 24 h.

O=c1[nH]cc(F)c(=O)[nH]1 [5-FU, 5-fluorouracil, reference compound]
cell cycle arrest (HCT-116 cells [1]): arrested cell cycle at S phase
maximum wound closure (HCT-116 cells [2]): 39%
IC50 [3]: 43.8 ± 2.3 µM
cell viability by Guava ViaCount (CT-26 cells): higher percentage of dead and apoptotic cells
IC50 (CT-26 colon cancer cells): 2.7 ± 1.9 µM

CS(C)=O.[Cl-].[Cl-].[Cl-].[Cl-].[Ru+3].c1c[nH+]c[nH]1.c1c[nH]cn1 [NAMI-A]
cytotoxicity against cancer cells (cancer cells): minimal cytotoxicity
fold lower activity than cisplatin (cancer cells): 1000 fold
effect on cell adhesion and migration (HCT-116 cell line): inhibitory effect in reducing cell adhesion and migration

[O]=[V]([O]c1cccc2ccc(/C=N/Nc3nc4ccccc4s3)nc12)[O]c1cccc2ccc(/C=N/Nc3nc4ccccc4s3)nc12 [[VO(HL)2]]
induced CD bands with BSA [4]: high intensity induced CD bands
solubility and stability in PBS buffered solutions [5]: oxidation of the metal centre likely takes place
